Measured values taken from ChEMBL document CHEMBL1133433, “Synthesis of a novel class of cdc25A inhibitors from vitamin D3” (Bioorg Med Chem Lett, 2000).

How the values were obtained:
[1] = molecular target: T1, M-phase inducer phosphatase 1 (Homo sapiens, UniProt P30304); test: Concentration required for the inhibitory activity against human Cell division cycle 25A
T1 sequence (P30304 whole entry): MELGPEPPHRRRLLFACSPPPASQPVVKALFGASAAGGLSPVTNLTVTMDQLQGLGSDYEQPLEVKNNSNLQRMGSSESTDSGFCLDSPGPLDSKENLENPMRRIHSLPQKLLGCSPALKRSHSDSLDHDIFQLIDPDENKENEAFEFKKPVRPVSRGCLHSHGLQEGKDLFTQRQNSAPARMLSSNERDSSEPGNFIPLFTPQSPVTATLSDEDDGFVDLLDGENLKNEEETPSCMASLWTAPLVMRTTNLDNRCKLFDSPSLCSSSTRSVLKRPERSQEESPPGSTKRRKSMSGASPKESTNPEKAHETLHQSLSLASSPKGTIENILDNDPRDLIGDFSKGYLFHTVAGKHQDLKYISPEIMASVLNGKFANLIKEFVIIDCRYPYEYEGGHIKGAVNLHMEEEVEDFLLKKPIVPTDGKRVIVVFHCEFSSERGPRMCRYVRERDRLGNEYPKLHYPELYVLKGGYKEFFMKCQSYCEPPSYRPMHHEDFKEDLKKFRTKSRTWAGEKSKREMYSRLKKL

SBC-5 = test: Inhibitory concentration required for antitumor activity against SBC-5 cells; type: functional, cell-based; conditions: Homo sapiens

Row | Compound | IC50 [1] [µM] | IC50 (SBC-5) [µM]
1 | CC(C)CCC[C@@H](C)[C@H]1CCC2C(CCCC(=O)O)CCC[C@@]21C (some centres not stated) | 9 | > 100
2 | CC(C)CCC[C@@H](C)[C@H]1CCC2C(CC(=O)O)CCC[C@@]21C (some centres not stated) | 32 | > 100
3 | CC(C)CCC[C@@H](C)[C@H]1CCC2/C(=C/C=C/C(=O)O)CCC[C@@]21C (some centres not stated) | 94 | 42
4 | COC(=O)CC1CCC[C@@]2(C)C1CC[C@@H]2[C@H](C)CCCC(C)C (some centres not stated) | > 300 | 70

The remaining lines, values ahead:

Row | IC50 [1] [µM] | IC50 (SBC-5) [µM] | Compound
5 | > 300 | 71 | COC(=O)/C=C1\CCC[C@@]2(C)C1CC[C@@H]2[C@H](C)CCCC(C)C (some centres not stated)
6 | 7.7 | 47 | CC(C)CCC[C@@H](C)[C@H]1CCC2/C(=C/C(=O)O)CCC[C@@]21C (some centres not stated)
